IC50 and TD50 data for 24 compounds are collected here from patent US8008303B2, “Biphenyl derivatives and their use in treating hepatitis C” (AstraZeneca AB, priority 2005, dated 2011).

The IC50 is the concentration at which inhibition is half-maximal. Higher therefore signals a need for much substance.

For data set [1], the system named is HCV replicon cells Huh 9B. The data set is described as follows: HCV replicon assay (luciferase readout). The format is cell-based. The method, boiled down: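 Compounds, made up at twice final strength (final DMSO 1%), were added to subgenomic replicon cells one day after plating. Incubation then ran 72 h at 37 °C, 5% CO2, without G418. Replication was quantified as firefly luciferase luminescence in lysed cells, with cytotoxicity assessed on a duplicate clear plate.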
On the technique in general: A replicon is a self-replicating genome or part of one, used to study replication in cells.

Data set [2] has as its system HCV replicon cells Huh 9B. In kind it is cell-based.
Setting [3] is: Hepatitis C virus, 72 h, concentration reducing replicon level (luciferase activity) by 50% vs untreated cell control, 72 h incubation.
The mark [4] stands for this setting: concentration reducing total cell area by 50% relative to DMSO controls, methylene blue, absorbance 620 nm, 72 h incubation.

Molecules are shown by their SMILES. Where two headings read alike, the source gives them in different places.

In the case of `Cc1ccc(NC(=O)C2CCCC2)cc1-c1ccc(C(=O)Nc2ccc(CN3CCS(=O)(=O)CC3)cc2)cc1` [Example 167, 5′-(Cyclopentanecarbonyl-amino)-2′-methyl-biphenyl-4-carboxylic acid [4-(1,1-dioxo-1lambda*6*-thiomorpholin-4-ylmethyl)-phenyl]-amide], the IC50 in data set [1] (setting [3]) is under 1 µM. The TD50 result in data set [2] (setting [4]) is on record as “* (* < 50 μM)”.

The compound `Cc1ccc(C(=O)Nc2ccc(N3CCOCC3)cc2)cc1-c1ccc(C(=O)NCc2ccc(Cl)c(C(F)(F)F)c2)cc1` [Example 42, 6-Methyl-biphenyl-3,4′-dicarboxylic acid 4′-(4-chloro-3-trifluoromethyl-benzylamide) 3-[(4-morpholin-4-yl-phenyl)-amide]] displayed an IC50 in data set [1] of under 1 µM. The TD50 entry in data set [2] was “** (key: * < 50 μM; ** > 50 μM)”.

In data set [1] (setting [3]), `CCCS(=O)(=O)N1CCN(Cc2ccc(NC(=O)c3ccc(-c4cc(S(=O)(=O)Nc5ccc(N6CCOCC6)cc5)ccc4OC)cc3)cc2)CC1` [Example 248, 2′-Methoxy-5′-(4-morpholin-4-yl-phenylsulfamoyl)-biphenyl-4-carboxylic acid [4-(4-propane-1-sulfonyl-piperazin-1-ylmethyl)-phenyl]-amide] displayed an IC50 of under 1 µM. The TD50 entry in data set [2] (setting [4]) is “* (* < 50 μM)”.

In the case of `O=C(Nc1ccc(CN2CCS(=O)(=O)CC2)cc1)c1ccc(-c2cc(NC(=O)C3CC3)ccc2OC(F)(F)F)cc1` [Example 185, 5′-(Cyclopropanecarbonyl-amino)-2′-trifluoromethoxy-biphenyl-4-carboxylic acid [4-(1,1-dioxo-1lambda*6*-thiomorpholin-4-ylmethyl)-phenyl]-amide], the IC50 in data set [1] (setting [3]) was under 1 µM. Besides, the TD50 entry in data set [2] (setting [4]) was “* (* < 50 μM)”.

Take `COc1cccc(C(=O)Nc2ccc(-c3cc(C(=O)Nc4ccc(N5CCOCC5)cc4)ccc3C)cc2)c1` [Example 112, 4′-(3-Methoxy-benzoylamino)-6-methyl-biphenyl-3-carboxylic acid (4-morpholin-4-yl-phenyl)-amide]: the IC50 in data set [1] (concentration reducing replicon level (luciferase activity) by 50% vs untreated cell control, 72 h incubation) fell in the range of 1 to 5 µM. Also, the TD50 result in data set [2] (setting [4]) is listed as “* (* < 50 μM)”.

For the compound `CCC1(c2ccc(NC(=O)c3ccc(-c4cc(NC(=O)C5CCCCC5)ccc4C)cc3)cc2)CCC(=O)NC1=O` (stereo not drawn) [Example 221, 5′-(Cyclohexanecarbonyl-amino)-2′-methyl-biphenyl-4-carboxylic acid [4-(3-ethyl-2,6-dioxo-piperidin-3-yl)-phenyl]-amide], in data set [1] (setting [3]), the IC50 is under 1 µM. For the same compound, the TD50 result in data set [2] (setting [4]) was “* (* < 50 μM)”.

`COc1ccc(C(=O)Nc2ccc(N3CCS(=O)(=O)CC3)cc2)cc1-c1ccc(C(=O)Nc2ccc(N3CCN(C)CC3)cc2)cc1` [Example 261, 6-Methoxy-biphenyl-3,4′-dicarboxylic acid 3-{[4-(4-(1,1-dioxo-1lambda*6*-thiomorpholin-4-yl)-phenyl]-amide} 4′-{[4-(4-methyl-piperazin-1-yl)-phenyl]-amide}] yielded an IC50 in data set [1] of 1 to 5 µM. The TD50 entry in data set [2] was “* (key: * < 50 μM; ** > 50 μM)”.

Regarding `Cc1ccc(C(=O)Nc2ccc(N3CCOCC3)cc2)cc1-c1ccc(C(=O)Nc2ccc(C(=O)N3CCCCC3)cc2)cc1` [Example 58, 6-Methyl-biphenyl-3,4′-dicarboxylic acid 3-[(4-morpholin-4-yl-phenyl)-amide] 4′-{[4-(piperidine-1-carbonyl)-phenyl]-amide}], the IC50 in data set [1] was 1 to 5 µM. Further, the TD50 result in data set [2] is listed as “** (key: * < 50 μM; ** > 50 μM)”.

Consider `Cc1ccc(C(=O)Nc2ccc(N3CCOCC3)cc2)cc1-c1ccc(CNCCN(C)C)cc1` [Example 102, 4′-[(2-Dimethylamino-ethylamino)-methyl]-6-methyl-biphenyl-3-carboxylic acid (4-morpholin-4-yl-phenyl)-amide], for which the IC50 in data set [1] (setting [3]) fell in the range of 1 to 5 µM. Besides, in data set [2] (setting [4]), the TD50 result was “* (* < 50 μM)”.

Consider `Cc1ccc(C(=O)Nc2ccc(N3CCOCC3)cc2)cc1-c1ccc(C(=O)Nc2ccc(Cl)c(Cl)c2)cc1` [Example 22, 6-Methyl-biphenyl-3,4′-dicarboxylic acid 4′-[(3,4-dichloro-phenyl)-amide] 3-[(4-morpholin-4-yl-phenyl)-amide]], for which, in data set [1], the IC50 was 1 to 5 µM. Moreover, in data set [2], the TD50 entry was “** (key: * < 50 μM; ** > 50 μM)”.

`Cc1ccc(C(=O)Nc2ccc(N3CCOCC3)cc2)cc1-c1ccc(NC(=O)c2ccc(CN3CCS(=O)(=O)CC3)cc2)cc1` [Example 151, 4′-[4-(1,1-Dioxo-1lambda*6*-thiomorpholin-4-ylmethyl)-benzoylamino]-6-methyl-biphenyl-3-carboxylic acid (4-morpholin-4-yl-phenyl)-amide] displayed an IC50 in data set [1] (setting [3]) of under 1 µM. The TD50 result in data set [2] (setting [4]) is reported as “* (* < 50 μM)”.

In turn, `Cc1ccc(C(=O)Nc2ccc(-n3cncn3)cc2)cc1-c1ccc(C(=O)Nc2ccc(CN3CCS(=O)(=O)CC3)cc2)cc1` [Example 139, 6-Methyl-biphenyl-3,4′-dicarboxylic acid 4′-{[4-(1,1-dioxo-1lambda*6*-thiomorpholin-4-ylmethyl)-phenyl]-amide} 3-[(4-[1,2,4]triazol-1-yl-phenyl)-amide]] yielded an IC50 in data set [1] of under 1 µM. The TD50 result in data set [2] is “* (key: * < 50 μM; ** > 50 μM)”.

In the case of `Cc1ccc(NC(=O)CC2CCOCC2)cc1-c1ccc(C(=O)Nc2ccc(CN3CCS(=O)(=O)CC3)cc2)cc1` [Example 171, 2′-Methyl-5′-(2-tetrahydro-pyran-4-yl-acetylamino)-biphenyl-4-carboxylic acid [4-(1,1-dioxo-1lambda*6*-thiomorpholin-4-ylmethyl)-phenyl]-amide], the IC50 in data set [1] (setting [3]) was under 1 µM. Also, in data set [2] (setting [4]), the TD50 result is “* (* < 50 μM)”.

Consider `CCCS(=O)(=O)N1CCN(Cc2ccc(NC(=O)c3ccc(-c4cc(NC(=O)[C@@H]5CCCCN5)ccc4OC(F)(F)F)cc3)cc2)CC1` [Example 238, (S)-Piperidine-2-carboxylic acid (4′-{4-[4-(propane-1-sulfonyl)-piperazin-1-ylmethyl]-phenylcarbamoyl}-6-trifluoromethoxy-biphenyl-3-yl)-amide], for which the IC50 in data set [1] (setting [3]) is under 1 µM. Further, the TD50 result in data set [2] (setting [4]) is listed as “* (* < 50 μM)”.

In the case of `Cc1ccc(NC(=O)c2cscn2)cc1-c1ccc(C(=O)Nc2ccc(CN3CCS(=O)(=O)CC3)cc2)cc1` [Example 177, Thiazole-4-carboxylic acid {4′-[4-(1,1-dioxo-1lambda*6*-thiomorpholin-4-ylmethyl)-phenylcarbamoyl]-6-methyl-biphenyl-3-yl}-amide], in data set [1] (setting [3]), the IC50 was 1 to 5 µM. For the same compound, in data set [2] (setting [4]), the TD50 entry was “* (* < 50 μM)”.

For the compound `COc1ccc(C(=O)Nc2ccc(N3CCOCC3)cc2)cc1-c1ccc(C(=O)Nc2ccc(CN3CCN(S(=O)(=O)N(C)C)CC3)cc2)cc1` [Example 259, 6-Methoxy-biphenyl-3,4′-dicarboxylic acid 4′-{[4-(4-dimethylsulfamoyl-piperazin-1-ylmethyl)-phenyl]-amide} 3-[(4-morpholin-4-yl-phenyl)-amide]], the half-inhibitory concentration (IC50) in data set [1] was under 1 µM. Moreover, the TD50 entry in data set [2] is listed as “* (key: * < 50 μM; ** > 50 μM)”.

`Cc1cc(NC(=O)C2CC2)ccc1-c1cccc(C(=O)Nc2ccc(N3CCOCC3)cc2)c1` [Example 113, 4′-(Cyclopropanecarbonyl-amino)-2′-methyl-biphenyl-3-carboxylic acid (4-morpholin-4-yl-phenyl)-amide] had an IC50 in data set [1] (setting [3]) of over 5 µM. The TD50 result in data set [2] (setting [4]) is “* (* < 50 μM)”.

The compound `Cc1ccc(NC(=O)c2cccnc2)cc1-c1ccc(C(=O)Nc2ccc(CN3CCS(=O)(=O)CC3)cc2)cc1` [Example 156, N-{4′-[4-(1,1-Dioxo-1lambda*6*-thiomorpholin-4-ylmethyl)-phenylcarbamoyl]-6-methyl-biphenyl-3-yl}-nicotinamide] displayed an IC50 in data set [1] (setting [3]) of 1 to 5 µM. Besides, the TD50 result in data set [2] (setting [4]) is on record as “* (* < 50 μM)”.

Compound `Cc1ccc(C(=O)Nc2ccc(N3CCOCC3)cc2)cc1-c1ccc(CNCc2cccc(Cl)c2)cc1` [Example 96, 4′-[(3-Chloro-benzylamino)-methyl]-6-methyl-biphenyl-3-carboxylic acid (4-morpholin-4-yl-phenyl)-amide] returned an IC50 in data set [1] (setting [3]) of 1 to 5 µM. Further, in data set [2] (setting [4]), the TD50 result is “** (** > 50 μM)”.

`Cc1ccc(NC(=O)C2CCCCC2)cc1-c1ccc(C(=O)Nc2ccc(CN3CCOCC3)cc2)cc1` [Example 226, 5′-(Cyclohexanecarbonyl-amino)-2′-methyl-biphenyl-4-carboxylic acid (4-morpholin-4-ylmethyl-phenyl)-amide] returned an IC50 in data set [1] (setting [3]) of under 1 µM. Further, the TD50 result in data set [2] (setting [4]) is “* (* < 50 μM)”.

The compound `Cc1ccc(C(=O)Nc2ccc(N3CCOCC3)cc2)cc1-c1ccc(C(=O)Nc2ccc(Br)cc2)cc1` [Example 7, 6-Methyl-biphenyl-3,4′-dicarboxylic acid 4′-[(4-bromo-phenyl)-amide] 3-[(4-morpholin-4-yl-phenyl)-amide]] gave an IC50 in data set [1] of 1 to 5 µM. Also, in data set [2], the TD50 entry is “* (key: * < 50 μM; ** > 50 μM)”.

On to `Cc1ccc(NC(=O)C2CC2)cc1-c1ccc(C(=O)Nc2ccccc2CN2CCCCC2)cc1` [Example 224, 5′-(Cyclopropanecarbonyl-amino)-2′-methyl-biphenyl-4-carboxylic acid (2-piperidin-1-ylmethyl-phenyl)-amide], for which the IC50 in data set [1] (setting [3]) lay within 1 to 5 µM. For the same compound, the TD50 entry in data set [2] (setting [4]) was “* (* < 50 μM)”.

Regarding `Cc1ccc(C(=O)Nc2ccc(N3CCOCC3)cc2)cc1-c1ccc(C(=O)Nc2ccc(N)cc2)cc1` [Example 53, 6-Methyl-biphenyl-3,4′-dicarboxylic acid 4′-[(4-amino-phenyl)-amide] 3-[(4-morpholin-4-yl-phenyl)-amide]], the IC50 in data set [1] lay in the range of 1 to 5 µM. Moreover, the TD50 entry in data set [2] is reported as “** (key: * < 50 μM; ** > 50 μM)”.

In turn, `Cc1cccc(CNC(=O)c2ccc(-c3cc(NC(=O)c4ccncc4)ccc3C)cc2)c1` [Example 215, N-[6-Methyl-4′-(3-methyl-benzylcarbamoyl)-biphenyl-3-yl]-isonicotinamide] registered an IC50 in data set [1] (setting [3]) of over 5 µM. In data set [2] (setting [4]), the TD50 entry is on record as “* (* < 50 μM)”.
